# Values of other authors, collected in patent US20080292591A1, “Tumor mouse models using lentiviral vectors” (The Salk Institute for Biological Studies, priority 2007, published 2008).
# Assays:
# xenografts of tumors = conditions: animal models bearing xenografts of tumors
compound,measurement,setting,value
Cc1cc(Nc2cc(N3CCN(C)CC3)nc(Sc3ccc(NC(=O)C4CC4)cc3)n2)n[nH]1 [VX-680],antiproliferative activity in vitro,a variety of cell lines,broad and potent antiproliferative activity
same,antitumor activity in animal models,xenografts of tumors,robust antitumor activity
